Each structure is given as a SMILES string. Non-standard residues stand in square brackets, D forms with d. Residues, ends and D or L forms follow the SMILES beside them. Phe(4-NO2) = N[C@@H](Cc1ccc([N+](=O)[O-])cc1)C(=O)O; Nle = CCCC[C@H](N)C(=O)O; 2Abz = Nc1ccccc1C(=O)O

In data set [1] the target is T1, HIV-1 protease (Human immunodeficiency virus type 1 group M subtype B, UniProt P04585).
T1 construct: made in house; host or cells: E. coli BL21 (dE3)pLysS, pET30a vector
Kind of data set: Kinetic measurements of the cleavage of anthranilyl fluorogenic substrate by HIV-1 protease. It is filed as biochemical. Particulars: purified refolded HIV-1 protease; read-out: Michaelis constant for the substrate Km.
Excerpt: The HIV-1 protease gene was subcloned into the pET30a vector (Novagen) and then transformed into BL21 (dE3)pLysS cells for protein expression. Protein expression and purification were followed according to Tang's procedure (Hong et al., Biochemistry, 1996, 35, 10627-10633). […] The inclusion body containing some bacterial proteins was thoroughly washed by using TRITON X-100, solubilized in BM urea and passed through the Q-sepharose column to remove the bacterial proteins which interfered with subsequent refolding steps. HIV-1 protease was refolded from the urea to an active form by dialysis. As a final step, gel filtration chromatography was used to remove impurities after refolding. Activities of purified HIV-1 protease were examined using a fluorogenic substrate, 2-aminobenzoyl-Thr-Ile-Nle-Phe(pNO2)-Gln-Arg-NH2 (Novabiochem). […] Using the first rate equation, kcat is calculated. In the condition of So<<Km, v=Eo(kcat/Km)So, where Eo is the total enzyme concentration, and So is the substrate concentrate.

In data set [2] the target is T1, HIV-1 protease. Kind of data set: HIV-1 Protease Inhibition Assay. The class given is biochemical. An outline of the steps: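 Recombinant HIV-1 protease expressed in E. coli BL21(DE3)pLysS, refolded from urea and purified. Activity followed with fluorogenic substrate 2-aminobenzoyl-Thr-Ile-Nle-Phe(pNO2)-Gln-Arg-NH2 under So<<Km.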

Consider `CCCC[C@H](NC(=O)[C@@H](NC(=O)[C@@H](NC(=O)c1ccccc1N)[C@@H](C)O)[C@@H](C)CC)C(=O)N[C@@H](Cc1ccc([N+](=O)[O-])cc1)C(=O)N[C@@H](CCC(N)=O)C(=O)N[C@@H](CCCNC(=N)N)C(N)=O` [2-aminobenzoyl-Thr-Ile-Nle-Phe(pNO2)-Gln-Arg-NH2] (H-[2Abz]TI[Nle][Phe(4-NO2)]QR-NH2), for which the Km – broadly, the substrate concentration at which the rate is half of its maximum – in data set [1] is 4.5 µM.
Consider `CC(C)CN(C[C@@H](O)[C@H](Cc1ccccc1)NC(=O)OC1CC2CCO[C@@H]2C1)S(=O)(=O)c1ccc(O)c(O)c1` (stereo partly shown) [Compound 88], for which the melting point – broadly, the temperature of the solid-liquid transition – is 80 to 82 °C. Besides, the affinity in data set [2] (fluorogenic substrate assay) corresponds to a Ki of 1.2 nM.
`CNCc1ccc(S(=O)(=O)N(CC(C)C)C[C@@H](O)[C@H](Cc2ccccc2)NC(=O)OC2CO[C@H]3OCCC23)cc1` (stereo partly shown) [Compound 119] returned a melting point of 57 to 62 °C. Also, in data set [2] (fluorogenic substrate assay), the midpoint of inhibition, the IC50, lay at 3500 pM and the Ki (commonly the equilibrium dissociation constant of an inhibitor or competing ligand from its target) was 1.1 nM.
Take `COc1ccc(S(=O)(=O)N(C[C@@H]2CCC(=O)N2)C[C@@H](O)[C@H](Cc2ccccc2)NC(=O)OC2CO[C@H]3OCC[C@@H]23)cc1` (stereo partly shown) [Compound 283]: in data set [2] (cells marked (pM) in a column headed nM), the IC50 (in general, the midpoint of a concentration-inhibition curve) came to 14 pM.
`CC(C)(C)OC(=O)N[C@@H](Cc1ccccc1)[C@H](O)CN(C[C@H]1CCC(=O)N1)S(=O)(=O)c1ccc([N+](=O)[O-])cc1` [Compound 307a, {(1S)-Benzyl-(2R)-hydroxy-3-[(4-nitrobenzenesulfonyl)-(5-oxopyrrolidin-(2R)-ylmethyl)amino]propyl}-carbamic acid tert-butyl ester] registered an IC50 in data set [2] (fluorogenic substrate assay) of 7000 pM.
Still for that read-out and setting: with `CC(C)(C)OC(=O)N[C@@H](Cc1ccccc1)[C@H](O)CN(C[C@@H]1CCC(=O)N1)S(=O)(=O)c1ccc([N+](=O)[O-])cc1` [Compound 307b] the figure was 12000 pM.
Same read-out and setting: with `CC(C)CN(C[C@@H](O)[C@H](Cc1ccccc1)NC(=O)OC(C)(C)C)C1CC2(CCCC2)NC1=O` (stereo partly shown) [Compound 528b] the figure was 386000 pM.
